Experimental data published in ChEMBL document CHEMBL1201862, “PubChem BioAssay data set” (2004).
Active and inactive are the calls of the source.

Experiments:
[1] = target: Sphingosine 1-phosphate receptor 1 (Homo sapiens, UniProt P21453); test: Fluorescence-based counterscreen assay for S1P4 agonists: Cell-based dose response high throughput screening assay to identify agonists of the Sphingosine 1-Phosphate Receptor 1 (S1P1). [Related pubchem assays (depositor defined):AID1509, AID1523, AID1801, AID463107, AID463118, AID463119, AID463122, AID463123, AID463129, AID463225, AID504400, AID504460]; format: functional
Chain of Sphingosine 1-phosphate receptor 1 (P21453 whole entry): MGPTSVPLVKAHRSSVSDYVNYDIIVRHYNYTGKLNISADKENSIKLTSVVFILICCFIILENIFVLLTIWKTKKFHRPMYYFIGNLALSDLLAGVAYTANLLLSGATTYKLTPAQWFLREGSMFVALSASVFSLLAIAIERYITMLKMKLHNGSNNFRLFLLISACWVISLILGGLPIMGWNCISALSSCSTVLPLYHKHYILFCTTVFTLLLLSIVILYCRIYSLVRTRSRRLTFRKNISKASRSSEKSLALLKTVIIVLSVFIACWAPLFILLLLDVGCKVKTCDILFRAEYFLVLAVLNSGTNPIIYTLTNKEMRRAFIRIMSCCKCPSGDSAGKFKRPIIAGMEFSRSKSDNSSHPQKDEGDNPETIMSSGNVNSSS

[2] = target: T1, Sphingosine 1-phosphate receptor 4 (Homo sapiens, UniProt O95977); test: Fluorescence dose response cell-based high throughput screening assay for agonists of the Sphingosine 1-Phosphate Receptor 4 (S1P4). [Related pubchem assays: 1509 (Primary screen.), 1523 (Confirmation screen in triplicates.)]; format: functional
T1 sequence (O95977 whole entry): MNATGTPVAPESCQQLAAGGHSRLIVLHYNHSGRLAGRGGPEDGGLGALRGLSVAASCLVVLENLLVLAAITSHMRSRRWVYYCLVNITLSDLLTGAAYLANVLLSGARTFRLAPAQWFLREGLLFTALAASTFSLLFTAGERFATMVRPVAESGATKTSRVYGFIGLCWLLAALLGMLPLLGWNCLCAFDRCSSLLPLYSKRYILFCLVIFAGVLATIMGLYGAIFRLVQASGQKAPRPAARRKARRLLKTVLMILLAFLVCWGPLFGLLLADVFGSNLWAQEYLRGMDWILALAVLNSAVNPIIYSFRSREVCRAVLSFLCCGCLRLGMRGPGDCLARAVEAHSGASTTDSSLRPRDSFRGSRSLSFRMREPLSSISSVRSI

cells = format: functional, cell-based
[3] = Luminescence Cell-Based Dose Response HTS to Identify Inhibitors of Luciferase Translation or Activity in H4-C Neuroglioblastoma Cells. [Related pubchem assays: 1813 (Primary HTS), 1827 (Project Summary)]; format: functional
[4] = Luminescence Cell-Based Dose Response HTS to Identify Activators of Luciferase Translation or Activity in H4-C Neuroglioblastoma Cells. [Related pubchem assays: 1829 (Project Summary), 1814 (Primary HTS)]; format: functional
[5] = Luminescence Cell-Based Dose Retest to Confirm Activators of 5'UTR Stem-Loop Driven Alpha-Synuclein mRNA Translation in H4 Neuroglioblastoma Cells. [Related pubchem assays (depositor defined):AID1813, AID1829]; format: functional
[6] = cytotoxicity toward DRD oncogenic fibroblasts, dose response, cell-based, non-viral oncogenic, luminescence (AID 1934); format: functional; conditions: Homo sapiens
[7] = inhibitors of SNCA 5'UTR-driven reporter translation, confirmation, H4 neuroglioma cells, luminescence (AID 1988); format: functional, cell-based
[8] = Luminescence Cell-Based Dose HTS Response to Identify Inhibitors of 5'UTR Stem-Loop Driven Prion Protein mRNA Translation in H4-C Neuroglioblastoma Cells. [Related pubchem assays (depositor defined):AID1814, AID1827]; format: functional
[9] = Luminescence Cell-Based Dose Confirmation HTS to Identify Inhibitors of 5'UTR Stem-Loop Driven Alpha-Synuclein mRNA Translation in H4 Neuroglioblastoma Cells. [Related pubchem assays: 1827 (Project Summary), 1813 (Primary HTS)]; format: functional
[10] = luciferase reporter signal reduction – luminescence, H4-C neuroglioblastoma cells, dose response (AID 2458); format: functional, cell-based;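 note: H4 neuroglioblastoma cells stably carrying a luciferase reporter gene fusion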
[11] = inhibitors of SNCA 5'UTR-driven translation, confirmation, luminescence, H4 neuroglioblastoma cells, dose confirmation (AID 2454); format: functional, cell-based;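 note: H4 neuroglioblastoma cells carrying an alpha-synuclein 5'UTR luciferase reporter; potency for inhibition of the luciferase signal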
[12] = Luminescence Cell-Based Dose Response HTS to Identify Inhibitors of 5'UTR Stem-Loop Driven Prion Protein mRNA Translation in H4 Neuroglioblastoma Cells. [Related pubchem assays: 1827 (Project Summary), 1813 (Primary HTS)]; format: functional
BJ [13] = test: cells; format: functional, cell-based; conditions: Homo sapiens
[14] = inhibitors of firefly luciferase expression or activity, dose response, H4 neuroglioma cells, luminescence (AID 1990); format: functional, cell-based
BJ [15] = test: cytotoxicity toward BJ-TERT-LT-ST fibroblasts, dose response, cell-based, RAS-independent, luminescence (AID 1935); format: functional; conditions: Homo sapiens;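 note: BJ fibroblasts immortalized with TERT plus LT and ST oncogenes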
[16] = Luminescence Cell-Based Dose Response HTS to Identify Activators of 5'UTR Stem-Loop Driven Prion Protein mRNA Translation in H4-C Neuroglioblastoma Cells. [Related pubchem assays: 1829 (Project Summary), 1814 (Primary HTS)]; format: functional
BJ [17] = test: cytotoxicity toward BJ-TERT fibroblasts, dose response, cell-based, RAS-independent, luminescence (AID 1933); format: functional; conditions: Homo sapiens
[18] = target: Peroxisome proliferator-activated receptor gamma/Nuclear receptor coactivator 1 (Homo sapiens, UniProt P37231); test: TR-FRET dose response biochemical High Throughput Screening assay for agonists of the steroid receptor coactivator 1 (SRC-1) recruitment by the peroxisome proliferator-activated receptor gamma (PPAR gamma): non-selective agonists. [Related pubchem assays (depositor defined):AID1300, AID1808, AID504735, AID631]; format: protein assay
Chain of Peroxisome proliferator-activated receptor gamma/Nuclear receptor coactivator 1 (P37231 whole entry): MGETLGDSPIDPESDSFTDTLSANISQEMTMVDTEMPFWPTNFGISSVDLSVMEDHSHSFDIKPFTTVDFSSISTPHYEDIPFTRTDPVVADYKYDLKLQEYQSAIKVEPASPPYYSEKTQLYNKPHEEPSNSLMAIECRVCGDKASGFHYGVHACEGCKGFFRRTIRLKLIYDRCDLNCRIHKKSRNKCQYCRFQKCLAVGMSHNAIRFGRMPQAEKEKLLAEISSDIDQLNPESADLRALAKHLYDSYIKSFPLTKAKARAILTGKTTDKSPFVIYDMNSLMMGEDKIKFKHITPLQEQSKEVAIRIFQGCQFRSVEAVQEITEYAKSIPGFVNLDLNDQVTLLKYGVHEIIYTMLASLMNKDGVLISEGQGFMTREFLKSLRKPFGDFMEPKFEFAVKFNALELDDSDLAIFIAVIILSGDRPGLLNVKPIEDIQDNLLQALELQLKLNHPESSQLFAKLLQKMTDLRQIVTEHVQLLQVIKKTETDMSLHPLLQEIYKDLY
Chain of Peroxisome proliferator-activated receptor gamma/Nuclear receptor coactivator 1 (Q15788 whole entry, further chain): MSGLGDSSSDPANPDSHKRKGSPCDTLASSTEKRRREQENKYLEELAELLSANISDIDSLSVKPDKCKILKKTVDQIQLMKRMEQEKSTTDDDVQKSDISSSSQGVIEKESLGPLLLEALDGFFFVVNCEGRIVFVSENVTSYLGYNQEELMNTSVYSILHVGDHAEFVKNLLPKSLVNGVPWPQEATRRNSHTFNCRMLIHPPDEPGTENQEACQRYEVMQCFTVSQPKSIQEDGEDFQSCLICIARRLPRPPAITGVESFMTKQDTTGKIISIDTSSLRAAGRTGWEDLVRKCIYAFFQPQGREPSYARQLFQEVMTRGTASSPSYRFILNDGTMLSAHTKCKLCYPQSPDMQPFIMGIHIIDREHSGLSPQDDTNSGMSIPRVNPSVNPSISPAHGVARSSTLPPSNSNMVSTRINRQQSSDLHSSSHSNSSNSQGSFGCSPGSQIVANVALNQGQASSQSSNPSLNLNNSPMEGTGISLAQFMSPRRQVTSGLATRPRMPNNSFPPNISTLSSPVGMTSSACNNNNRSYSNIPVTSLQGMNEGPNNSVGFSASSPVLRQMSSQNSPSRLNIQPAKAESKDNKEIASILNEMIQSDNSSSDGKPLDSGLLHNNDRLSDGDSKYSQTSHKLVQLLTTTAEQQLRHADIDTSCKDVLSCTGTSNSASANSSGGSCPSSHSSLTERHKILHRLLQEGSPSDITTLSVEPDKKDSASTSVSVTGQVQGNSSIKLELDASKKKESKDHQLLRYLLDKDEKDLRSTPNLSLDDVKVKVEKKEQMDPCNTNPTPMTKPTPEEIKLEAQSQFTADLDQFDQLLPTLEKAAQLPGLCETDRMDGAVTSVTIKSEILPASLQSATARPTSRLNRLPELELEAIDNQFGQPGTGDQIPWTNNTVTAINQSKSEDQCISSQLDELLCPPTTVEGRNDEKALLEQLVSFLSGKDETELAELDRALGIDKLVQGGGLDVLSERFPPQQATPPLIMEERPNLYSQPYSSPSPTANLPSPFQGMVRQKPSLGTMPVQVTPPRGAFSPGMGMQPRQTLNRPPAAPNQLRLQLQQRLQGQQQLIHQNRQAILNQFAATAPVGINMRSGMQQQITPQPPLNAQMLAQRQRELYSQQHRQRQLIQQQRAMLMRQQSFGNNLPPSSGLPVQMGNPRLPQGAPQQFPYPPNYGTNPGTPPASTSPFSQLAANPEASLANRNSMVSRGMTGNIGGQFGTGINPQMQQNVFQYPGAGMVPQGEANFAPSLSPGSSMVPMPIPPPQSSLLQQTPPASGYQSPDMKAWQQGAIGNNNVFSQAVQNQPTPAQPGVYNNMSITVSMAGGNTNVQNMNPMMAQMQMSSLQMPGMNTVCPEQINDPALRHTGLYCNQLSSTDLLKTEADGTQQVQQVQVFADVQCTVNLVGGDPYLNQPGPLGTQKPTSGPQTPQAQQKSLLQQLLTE

[19] = target: Peroxisome proliferator-activated receptor gamma/Nuclear receptor coactivator 3 (Homo sapiens, UniProt P37231); test: TR-FRET dose response biochemical High Throughput Screening assay for agonists of the steroid receptor coactivator 3 (SRC-3) recruitment by the peroxisome proliferator-activated receptor gamma (PPAR gamma): non-selective agonists. [Related pubchem assays: 1301 (Confirmation screen.), 1048 (Primary screen.)]; format: functional
[20] = target: Peroxisome proliferator-activated receptor gamma/Nuclear receptor coactivator 2 (Homo sapiens, UniProt P37231); test: TR-FRET dose response biochemical High Throughput Screening assay for agonists of the steroid receptor coactivator 2 (SRC-2) recruitment by the peroxisome proliferator-activated receptor gamma (PPAR gamma): non-selective agonists. [Related pubchem assays: 1297, 1032 ]; format: functional
Mu-type opioid receptor [21] = target: T2, Mu-type opioid receptor (Homo sapiens, UniProt P35372); test: SAR Analysis of Agonists of the MOR Receptor using an Image-Based Assay - Set 3. [Related pubchem assays (depositor defined):AID1777, AID1785, AID1786, AID1966, AID2133, AID2136, AID2284, AID2285, AID2352]; format: functional
T2 sequence (P35372 whole entry): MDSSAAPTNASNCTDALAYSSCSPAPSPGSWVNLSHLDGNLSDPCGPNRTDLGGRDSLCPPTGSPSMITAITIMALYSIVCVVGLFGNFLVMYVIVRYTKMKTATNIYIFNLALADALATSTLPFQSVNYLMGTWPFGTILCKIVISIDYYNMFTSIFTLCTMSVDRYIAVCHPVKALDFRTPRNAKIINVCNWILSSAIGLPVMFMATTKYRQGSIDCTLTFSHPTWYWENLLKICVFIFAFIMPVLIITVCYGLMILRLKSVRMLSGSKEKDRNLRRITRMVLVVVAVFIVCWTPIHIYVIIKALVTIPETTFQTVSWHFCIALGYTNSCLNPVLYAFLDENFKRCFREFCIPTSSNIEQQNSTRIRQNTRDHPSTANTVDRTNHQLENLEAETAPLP

[22] = target: T3, Kappa-type opioid receptor (Homo sapiens, UniProt P41145); test: KOR agonist analogs, arrestin-GFP redistribution, SAR follow-up, imaging, image-based, set 3 (AID 488833); format: functional
T3 sequence (P41145 whole entry): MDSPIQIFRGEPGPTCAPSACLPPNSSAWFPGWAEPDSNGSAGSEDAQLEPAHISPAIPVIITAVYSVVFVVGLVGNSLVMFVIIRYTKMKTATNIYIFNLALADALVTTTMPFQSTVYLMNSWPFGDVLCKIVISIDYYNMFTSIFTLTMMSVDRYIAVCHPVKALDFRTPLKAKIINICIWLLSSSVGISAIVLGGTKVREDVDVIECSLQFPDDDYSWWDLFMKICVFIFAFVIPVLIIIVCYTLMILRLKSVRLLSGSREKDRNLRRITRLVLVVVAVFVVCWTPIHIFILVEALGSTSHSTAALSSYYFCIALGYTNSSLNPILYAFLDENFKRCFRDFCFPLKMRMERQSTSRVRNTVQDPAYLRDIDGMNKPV

[23] = target: T4, Delta-type opioid receptor (Homo sapiens, UniProt P41143); test: SAR Analysis of Agonists of the DOR Receptor using an Image-Based Assay - Set 3. [Related pubchem assays (depositor defined):AID1777, AID1786]; format: functional
T4 sequence (P41143 whole entry): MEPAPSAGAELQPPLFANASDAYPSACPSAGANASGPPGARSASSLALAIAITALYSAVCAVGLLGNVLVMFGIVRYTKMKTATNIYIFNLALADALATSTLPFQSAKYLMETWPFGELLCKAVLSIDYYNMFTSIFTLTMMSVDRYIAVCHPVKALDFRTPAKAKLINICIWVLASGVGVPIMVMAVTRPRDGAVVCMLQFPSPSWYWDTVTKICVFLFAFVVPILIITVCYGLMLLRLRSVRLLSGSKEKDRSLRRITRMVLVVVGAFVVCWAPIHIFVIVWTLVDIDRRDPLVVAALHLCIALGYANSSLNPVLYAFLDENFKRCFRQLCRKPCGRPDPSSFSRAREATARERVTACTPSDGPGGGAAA

[24] = target: T3, Kappa-type opioid receptor; test: SAR analysis of small molecule agonists of the kappa opioid receptor via a luminescent beta-arrestin assay - Set 3. [Related pubchem assays (depositor defined):AID1777, AID1785, AID1786, AID1966, AID2133, AID2136, AID2284, AID2500]; format: functional
Mu-type opioid receptor [25] = target: T2, Mu-type opioid receptor; test: SAR Analysis of Agonists of the MOR Receptor using an Image-Based Assay - Set 2. [Related pubchem assays (depositor defined):AID1777, AID1785, AID1786, AID1966, AID2133, AID2136, AID2284, AID2285, AID2352]; format: functional
[26] = target: T3, Kappa-type opioid receptor; test: SAR analysis of Agonists of the Kappa Opioid Receptor (KOR) using an Image-Based Assay - Set 2. [Related pubchem assays (depositor defined):AID1777, AID1786, AID1966, AID2133, AID2136, AID2284, AID2285, AID2359]; format: functional
[27] = target: T4, Delta-type opioid receptor; test: SAR Analysis of Agonists of the DOR Receptor using an Image-Based Assay - Set 2. [Related pubchem assays (depositor defined):AID1777, AID1785, AID1786, AID1966, AID2133, AID2136, AID2284, AID2285, AID2370]; format: functional
Mu-type opioid receptor [28] = target: T2, Mu-type opioid receptor; test: SAR Analysis of Antagonists of the MOR Receptor using an Image-Based Assay - Set 2. [Related pubchem assays (depositor defined):AID1777, AID1785, AID1786, AID1966, AID2133, AID2136, AID2284, AID2285, AID2420]; format: functional
[29] = target: T4, Delta-type opioid receptor; test: SAR Analysis of Antagonists of the DOR Receptor using an Image-Based Assay - Set 2. [Related pubchem assays (depositor defined):AID1777, AID1785, AID1786, AID1966, AID2133, AID2136, AID2284, AID2285, AID2357]; format: functional
[30] = target: T3, Kappa-type opioid receptor; test: KOR antagonist analogs, beta-arrestin recruitment, SAR follow-up, cell-based, luminescence, set 2 (AID 2495); format: functional
[31] = target: T3, Kappa-type opioid receptor; test: SAR analysis of small molecule agonists of the kappa opioid receptor via a luminescent beta-arrestin assay - Set 2. [Related pubchem assays (depositor defined):AID1777, AID1785, AID1786, AID1966, AID2133, AID2136, AID2284, AID449737]; format: functional
[32] = target: T3, Kappa-type opioid receptor; test: SAR analysis of Antagonists of the Kappa Opioid Receptor (KOR) using an Image-Based Assay - Set 2. [Related pubchem assays (depositor defined):AID1777, AID1785, AID1786, AID1966, AID2133, AID2136, AID2284, AID2285, AID2348]; format: functional
Cannabinoid receptor 2 [33] = target: T5, Cannabinoid receptor 2 (Homo sapiens, UniProt P34972); test: SAR analysis of antagonists of the Cannabinoid Receptor 2 using an Image-Based Assay - Set 3. [Related pubchem assays (depositor defined):AID2013, AID2026]; format: functional
T5 sequence (P34972 whole entry): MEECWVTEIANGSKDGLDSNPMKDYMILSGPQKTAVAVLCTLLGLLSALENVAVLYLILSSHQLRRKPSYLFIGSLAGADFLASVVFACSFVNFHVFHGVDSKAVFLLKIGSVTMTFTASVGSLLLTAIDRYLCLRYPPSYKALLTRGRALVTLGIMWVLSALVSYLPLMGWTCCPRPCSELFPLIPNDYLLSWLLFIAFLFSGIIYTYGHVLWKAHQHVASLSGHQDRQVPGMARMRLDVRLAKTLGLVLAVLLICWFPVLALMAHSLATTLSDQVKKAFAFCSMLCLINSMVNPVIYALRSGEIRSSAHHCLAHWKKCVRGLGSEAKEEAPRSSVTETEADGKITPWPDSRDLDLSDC

Cannabinoid receptor 1 [34] = target: T6, Cannabinoid receptor 1 (Homo sapiens, UniProt P21554); test: SAR analysis of antagonists of the Cannabinoid Receptor 1 using an Image-Based Assay - Set 4. [Related pubchem assays (depositor defined):AID2013, AID2026]; format: functional
T6 sequence (P21554 whole entry): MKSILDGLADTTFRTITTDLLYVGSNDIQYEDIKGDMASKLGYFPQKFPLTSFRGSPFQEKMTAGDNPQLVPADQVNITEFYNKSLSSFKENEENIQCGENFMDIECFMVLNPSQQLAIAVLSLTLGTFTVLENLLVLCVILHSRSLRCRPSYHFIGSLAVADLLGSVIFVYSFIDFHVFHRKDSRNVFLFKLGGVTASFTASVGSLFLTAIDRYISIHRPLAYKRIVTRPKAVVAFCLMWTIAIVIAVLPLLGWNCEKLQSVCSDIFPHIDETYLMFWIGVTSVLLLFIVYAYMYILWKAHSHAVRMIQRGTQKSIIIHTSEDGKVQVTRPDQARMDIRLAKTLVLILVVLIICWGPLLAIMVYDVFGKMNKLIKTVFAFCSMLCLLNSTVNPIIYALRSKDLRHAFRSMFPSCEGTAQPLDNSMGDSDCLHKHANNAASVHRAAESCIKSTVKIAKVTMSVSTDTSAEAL

[35] = target: T7, G-protein coupled receptor 35 (Homo sapiens, UniProt Q9HC97); test: SAR analysis of Antagonists of the GPR35 Receptor using an Image-Based Assay - Set 6. [Related pubchem assays (depositor defined):AID2013, AID2026]; format: functional
T7 sequence (Q9HC97 whole entry): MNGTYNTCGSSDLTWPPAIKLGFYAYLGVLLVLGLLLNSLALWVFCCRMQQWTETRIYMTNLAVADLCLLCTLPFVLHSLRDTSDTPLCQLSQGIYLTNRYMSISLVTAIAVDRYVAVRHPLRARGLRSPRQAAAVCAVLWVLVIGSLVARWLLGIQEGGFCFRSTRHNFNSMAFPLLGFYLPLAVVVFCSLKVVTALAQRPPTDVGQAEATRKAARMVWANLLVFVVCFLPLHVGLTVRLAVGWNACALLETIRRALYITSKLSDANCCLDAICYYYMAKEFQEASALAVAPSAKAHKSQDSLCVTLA

Cannabinoid receptor 2 [36] = target: T5, Cannabinoid receptor 2; test: SAR analysis of agonists of the Cannabinoid Receptor 2 using an Image-Based Assay - Set 3. [Related pubchem assays (depositor defined):AID2013, AID2026]; format: functional
[37] = target: T7, G-protein coupled receptor 35; test: SAR analysis of Agonists of the GPR35 Receptor using an Image-Based Assay - Set 4. [Related pubchem assays (depositor defined):AID2013, AID2026]; format: functional
[38] = target: G-protein coupled receptor 55 (Homo sapiens, UniProt Q9Y2T6); test: SAR Analysis of Selective Antagonists of GPR55 using an Image-Based Assay - Set 4. [Related pubchem assays (depositor defined):AID2013, AID2026]; format: functional;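 note: antagonism of response to 5 µM lysophosphatidylinositol agonist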
Chain of G-protein coupled receptor 55 (Q9Y2T6 whole entry): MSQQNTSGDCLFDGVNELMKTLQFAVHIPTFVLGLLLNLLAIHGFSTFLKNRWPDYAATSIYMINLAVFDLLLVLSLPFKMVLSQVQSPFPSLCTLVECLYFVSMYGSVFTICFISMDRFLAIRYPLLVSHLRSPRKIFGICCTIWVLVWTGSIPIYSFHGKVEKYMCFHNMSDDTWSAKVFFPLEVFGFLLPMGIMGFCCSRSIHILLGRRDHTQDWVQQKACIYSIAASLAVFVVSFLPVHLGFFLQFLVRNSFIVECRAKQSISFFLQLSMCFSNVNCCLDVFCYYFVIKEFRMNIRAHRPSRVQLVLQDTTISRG

Cannabinoid receptor 1 [39] = target: T6, Cannabinoid receptor 1; test: SAR analysis of agonists of the Cannabinoid Receptor 1 using an Image-Based Assay - Set 4. [Related pubchem assays (depositor defined):AID2013, AID2026]; format: functional
[40] = SV40 cytopathic effect inhibition and cytotoxicity, confirmation, BSC cells, set 3 (AID 485276); format: functional, cell-based

SMILES: Cc1cccc(-n2c(=O)c(C#N)cc3c(=O)n4ccccc4nc32)c1
- EC50 [1]: 8.75 µM (active)
- EC50 [2]: 4.06 µM (active)

SMILES: Cc1ccc(-c2cc(C(=O)N/N=C/c3c(C)nn(-c4ccccc4)c3C)[nH]n2)s1
- EC50 (cells): 4.24 µM (active)
- EC50 [3]: 0.806 µM (active)
- EC50 [4]: 1.16 µM (inconclusive)
- EC50 [5]: 2.69 µM (inconclusive)
- EC50 [6]: 20 µM (inconclusive)
- EC50 [7]: < 0.1 µM (active)
- EC50 [8]: 1.23 µM (active)
- EC50 [9]: 1.38 µM (active)
- EC50 [10]: 1.71 µM (active)
- EC50 [11]: 6.08 µM (active)
- EC50 [12]: 11.6 µM (active)
- EC50 (BJ [13]): 46.3 µM (inconclusive)
- EC50 [14]: 6.26 µM (inconclusive)
- EC50 (BJ [15]): 0.396 µM (inconclusive)
- EC50 [16]: 0.509 µM (inconclusive)
- EC50 (BJ [17]): 0.413 µM (active)

SMILES: CC(C)C(OC(=O)c1cc2occc2n1C)C(=O)NCc1ccc2c(c1)OCO2 (stereo unspecified)
- EC50 [18]: > 79.4 µM (inactive)
- EC50 [19]: > 79.4 µM (not active)
- EC50 [20]: > 79.4 µM (not active)

SMILES: Fc1cccc(F)c1CSc1nnc(-c2ccccn2)n1Cc1cccs1
- EC50 (Mu-type opioid receptor [21]): > 32 µM (inactive)
- EC50 [22]: 20.9 µM (inactive)
- EC50 [23]: > 32 µM (inactive)
- EC50 [24]: 18 µM (inactive)

SMILES: CCc1ccc(S(=O)(=O)NCc2ccc(C(=O)NCCc3ccccc3)cc2)cc1
- EC50 (Mu-type opioid receptor [25]): > 32 µM (inactive)
- EC50 [26]: > 32 µM (inactive)
- EC50 [27]: > 32 µM (inactive)
- IC50 (Mu-type opioid receptor [28]): > 32 µM (inactive)
- IC50 [29]: > 32 µM (inactive)
- IC50 [30]: > 20 µM (inactive)
- EC50 [31]: > 20 µM (inactive)
- IC50 [32]: > 32 µM (inactive)

SMILES: N=c1c(C(=O)NCc2ccccc2)cc2c(=O)n3ccccc3nc2n1C1CCCC1
- IC50 (Cannabinoid receptor 2 [33]): > 32 µM (inactive)
- IC50 (Cannabinoid receptor 1 [34]): 15.9 µM (inactive)
- IC50 [35]: > 32 µM (inactive)
- EC50 (Cannabinoid receptor 2 [36]): 1.31 µM (active)
- EC50 [37]: > 32 µM (inactive)
- IC50 [38]: 4.1 µM (active)
- EC50 (Cannabinoid receptor 1 [39]): > 32 µM (inactive)

SMILES: CC(C)(c1ccc(O)cc1)c1ccc(O)cc1 [BISPHENOL A]
- IC50 [40]: 9.3 µM (active)
